Laboratory results from patent publication US20260250519A1, “Copper Containing Compounds and Compositions for Antimicrobial Paint and Coating” (ARXADA, LLC, priority 2022, published 2026).
Entries after “also recorded” stand apart in the source; their conditions may differ.

Assays:
[1] = Compatibility of copper compounds in flat wall paint, visual assessment of dry film for grits; format: physicochemical; settings: 600 ppm Cu in acrylic flat wall paint; dry film inspected for grits
Procedure: The compatibilities of copper compounds in paint were evaluated via visual assessment of dry film appearance of a flat wall paint (50% PVC, 35% Solid Vol, 45 g/L VOC, Table 1).

[2] = test system: Escherichia coli (ATCC 8739); experiment: Modified JIS Z2801 antibacterial efficacy in dry paint film (μBCC, ZnO); format: cell-based; settings: ZnO 0 ppm in flat wall paint; for 2 hr Contact Time % ↓ / 2 hr Contact Time Log10 ↓: relative to blank paint
Procedure: (§1) In brief, μBCC dispersion and optional ZnO dispersion (25 wt %) were added into a flat wall paint (50% PVC, 35% Solid Vol, 45 g/L VOC, Table 1) for target Cu and ZnO level, respectively. The paints were brushed onto the sterilized plastic filter paper. Each side of the filter paper was painted twice and the resulting coated paper was dried at ambient condition for 3 days. The dried coatings were then leached against 10 L water for 24 hours (4 water changes for the first 8 hour). Each of three (3) bacterial inoculum (0.4 mL): Escherichia coli (ATCC 8739), Staphylococcus aureus (ATCC 6538), Pseudomonas aeruginosa (ATCC 15442) was used to inoculate the dry film (40 mm×40 mm) of test paint to achieve 1.0 to 4.0×10^5 cfm/mL of inoculum concentration per each bacteria on dry surface of each test paint. The test paints were incubated at 35±1° C. and 90% relative humidity (RH) for 2 hour. The degrees of bacterial contamination of all samples were determined relative to blank paint via viable cell count of bacteria by agar plate culture method.

[3] = test system: Pseudomonas aeruginosa (ATCC 15442); experiment: as above; format: cell-based; settings: ZnO 0 ppm in flat wall paint; for 2 hr Contact Time % ↓ / 2 hr Contact Time Log10 ↓: relative to blank paint
Procedure: as §1

[4] = test system: Staphylococcus aureus (ATCC 6538); experiment: as above; format: cell-based; settings: ZnO 0 ppm in flat wall paint; for 2 hr Contact Time % ↓ / 2 hr Contact Time Log10 ↓: relative to blank paint
Procedure: as §1

[5] = test system: Pseudomonas aeruginosa (ATCC 15442); experiment: Interim EPA method for antimicrobial surface coatings, flat wall paint; format: cell-based; settings: 1670 ppm in flat wall paint
Procedure: (§2) The antibacterial efficacies of copper-containing composition in dry paint film were evaluated using an interim EPA method (Interim Method for Evaluating the Efficacy of Antimicrobial Surface Coatings: Oct. 2, 2020). In brief, μBCC dispersion was added into a flat wall paint (38% Solid Vol, <50 g/L VOC) for target Cu level. The paints were drawn-down onto the sterilized steel substrate (1 inch by 1 inch of AISI type 304 stainless steel). The resulting coated substrate was dried at ambient condition for at least 24 hours. Each of two (2) bacterial inoculum ([…]): Staphylococcus aureus (ATCC 6538) and Pseudomonas aeruginosa (ATCC 15442) was used to inoculate the dry film of test paint to achieve 10^4 to 10^5 cfm/carrier of each bacteria on dry surface of each test paint. The test paints were incubated at 22° C. and 30-40% RH for 2 hours. The degrees of bacterial contamination were determined via viable cell count for antibacterial efficacy relative to the uncoated substrate.

[6] = test system: Staphylococcus aureus (ATCC 6538); experiment: as above; format: cell-based; settings: Cu 1670 ppm in flat wall paint
Procedure: as §2

[7] = test system: Aspergillus niger (ATCC 6275), Aureobasidium pullulans (ATCC 9348) and Penicillium citrinum (ATCC 9849); experiment: ASTM resistance to growth of mold on interior coatings in an environmental chamber; format: cell-based; settings: for antifungal test pass/fail: Pass = rating 8-10 (Table 9); for Avg Rating: no Quat, 4 weeks in chamber
Procedure: Two coatings were brushed onto both faces and all edges of wood panel (allowing 1 day between coats). The resulting coated panels were dried at 23±2° C. and 50±5% relative humidity for 4 days. […] In the environmental chamber, the dried coated panels were hung vertically with the bottom approximately 3 inch above the surface of the inoculated soil and with sufficient spacing to allow free circulation of air and to prevent contact between panels or with wall surfaces. […] The degrees of fungal contamination were assessed using the rating scale in Table 9.

Compound: O=C([O-])[O-].[Cu+2].[Cu+2].[OH-].[OH-] [μBCC, Micronized basic copper carbonate]
- Compatibilities of Copper Compounds in Paint [1]: compatible; also recorded: Compatible (no grits)
- 2 hr Contact Time Avg ([2]; Cu 165 ppm): <5.7E+01
- 2 hr Contact Time Log10 ([2]; Cu 165 ppm): <1.75
- 2 hr Contact Time % ↓ ([2]; Cu 165 ppm): ≥99.920%
- 2 hr Contact Time Log10 ↓ ([2]; Cu 165 ppm): ≥3.10
- 2 hr Contact Time Avg ([2]; Cu 330 ppm): <1.0E+01
- 2 hr Contact Time Log10 ([2]; Cu 330 ppm): <1.00
- 2 hr Contact Time % ↓ ([2]; Cu 330 ppm): ≥99.986%
- 2 hr Contact Time Log10 ↓ ([2]; Cu 330 ppm): ≥3.85
- 2 hr Contact Time Avg ([2]; Cu 824 ppm): <4.0E+01
- 2 hr Contact Time Log10 ([2]; Cu 824 ppm): <1.60
- 2 hr Contact Time % ↓ ([2]; Cu 824 ppm): ≥99.944%
- 2 hr Contact Time Log10 ↓ ([2]; Cu 824 ppm): ≥3.25
- 2 hr Contact Time Avg ([2]; Cu 1650 ppm): <1.0E+01
- 2 hr Contact Time Log10 ([2]; Cu 1650 ppm): <1.00
- 2 hr Contact Time % ↓ ([2]; Cu 1650 ppm): ≥99.986%
- 2 hr Contact Time Log10 ↓ ([2]; Cu 1650 ppm): ≥3.85
- 2 hr Contact Time Avg ([3]; Cu 165 ppm): 1.2E+03
- 2 hr Contact Time Log10 ([3]; Cu 165 ppm): 3.08
- 2 hr Contact Time % ↓ ([3]; Cu 165 ppm): 93.632%
- 2 hr Contact Time Log10 ↓ ([3]; Cu 165 ppm): 1.20
- 2 hr Contact Time Avg ([3]; Cu 330 ppm): 1.3E+03
- 2 hr Contact Time Log10 ([3]; Cu 330 ppm): 3.13
- 2 hr Contact Time % ↓ ([3]; Cu 330 ppm): 92.912%
- 2 hr Contact Time Log10 ↓ ([3]; Cu 330 ppm): 1.15
- 2 hr Contact Time Avg ([3]; Cu 824 ppm): <4.7E+01
- 2 hr Contact Time Log10 ([3]; Cu 824 ppm): <1.67
- 2 hr Contact Time % ↓ ([3]; Cu 824 ppm): ≥99.754%
- 2 hr Contact Time Log10 ↓ ([3]; Cu 824 ppm): ≥2.61
- 2 hr Contact Time Avg ([3]; Cu 1650 ppm): 2.7E+01
- 2 hr Contact Time Log10 ([3]; Cu 1650 ppm): 1.43
- 2 hr Contact Time % ↓ ([3]; Cu 1650 ppm): 99.860%
- 2 hr Contact Time Log10 ↓ ([3]; Cu 1650 ppm): 2.85
- 2 hr Contact Time Avg ([4]; Cu 165 ppm): 6.3E+01
- 2 hr Contact Time Log10 ([4]; Cu 165 ppm): 1.80
- 2 hr Contact Time % ↓ ([4]; Cu 165 ppm): 99.936%
- 2 hr Contact Time Log10 ↓ ([4]; Cu 165 ppm): 3.20
- 2 hr Contact Time Avg ([4]; Cu 330 ppm): <2.0E+01
- 2 hr Contact Time Log10 ([4]; Cu 330 ppm): <1.30
- 2 hr Contact Time % ↓ ([4]; Cu 330 ppm): ≥99.980%
- 2 hr Contact Time Log10 ↓ ([4]; Cu 330 ppm): ≥3.70
- 2 hr Contact Time Avg ([4]; Cu 824 ppm): <4.0E+01
- 2 hr Contact Time Log10 ([4]; Cu 824 ppm): <1.60
- 2 hr Contact Time % ↓ ([4]; Cu 824 ppm): ≥99.960%
- 2 hr Contact Time Log10 ↓ ([4]; Cu 824 ppm): ≥3.40
- 2 hr Contact Time Avg ([4]; Cu 1650 ppm): <1.0E+01
- 2 hr Contact Time Log10 ([4]; Cu 1650 ppm): <1.00
- 2 hr Contact Time % ↓ ([4]; Cu 1650 ppm): ≥99.990%
- 2 hr Contact Time Log10 ↓ ([4]; Cu 1650 ppm): ≥4.00
- 2 hr Contact Time Avg [5]: 1.0E+00
- 2 hr Contact Time Log10 [5]: 0.00
- 2 hr Contact Time % ↓ ([5]; relative to uncoated substrate): 99.9964%
- 2 hr Contact Time Log10 ↓ ([5]; relative to uncoated substrate): 4.45
- 2 hr Contact Time Avg [6]: 6.6E+01
- 2 hr Contact Time Log10 [6]: 1.82
- 2 hr Contact Time % ↓ ([6]; relative to uncoated substrate): 99.9287%
- 2 hr Contact Time Log10 ↓ ([6]; relative to uncoated substrate): 3.15
- antifungal test pass/fail ([7]; 167 ppm Cu): fails
- antifungal test pass/fail ([7]; 333 ppm Cu): passes
- Avg Rating ([7]; Cu level 167 ppm): 7.7
- Avg Rating ([7]; Cu level 333 ppm): 9.3
